# Results: the NIST ThermoML archive (doi:10.1016/j.jct.2005.05.019)
# Several values for one entry are separate records, joined by “and”; a condition that tells them apart may be missing. Equal values may be shown once. Numbers after ± are expanded uncertainties.
# Conditions: Liquid; for mass density: Bellows volumetry; for vapor or sublimation pressure: Closed cell (Static) method
structure (smiles),measurement,setting,value
CC(C)C [2-methylpropane],mass density,"280 K, 1000 kPa",574.99 ± 0.63 kg/m3
same,mass density,"280 K, 2000 kPa",576.63 ± 0.63 kg/m3
same,mass density,"280 K, 3000 kPa",578.23 ± 0.64 kg/m3
same,mass density,"280 K, 5000 kPa",581.15 ± 0.64 kg/m3
same,mass density,"280 K, 10000 kPa",587.88 ± 0.65 kg/m3
same,mass density,"280 K, 20000 kPa",600.12 ± 0.66 kg/m3
same,mass density,"280 K, 30000 kPa",610.42 ± 0.67 kg/m3
same,mass density,"280 K, 40000 kPa",619.36 ± 0.68 kg/m3
same,mass density,"280 K, 50000 kPa",627.41 ± 0.69 kg/m3
same,mass density,"280 K, 60000 kPa",634.74 ± 0.7 kg/m3
same,mass density,"280 K, 70000 kPa",641.52 ± 0.71 kg/m3
same,mass density,"280 K, 80000 kPa",647.64 ± 0.71 kg/m3
same,mass density,"280 K, 90000 kPa",653.57 ± 0.72 kg/m3
same,mass density,"280 K, 100000 kPa",659 ± 1 kg/m3
same,mass density,"280 K, 120000 kPa",669.09 ± 1 kg/m3
same,mass density,"280 K, 140000 kPa",678.21 ± 1 kg/m3
same,mass density,"280 K, 160000 kPa",686.38 ± 1 kg/m3
same,mass density,"280 K, 180000 kPa",694.06 ± 1.1 kg/m3
same,mass density,"280 K, 200000 kPa",701.06 ± 1.1 kg/m3
same,vapor or sublimation pressure,280 K,199.8 ± 0.7 kPa
same,mass density,"300 K, 1000 kPa",550.5 ± 0.61 kg/m3
same,mass density,"300 K, 3000 kPa",554.67 ± 0.61 kg/m3
same,mass density,"300 K, 5000 kPa",558.59 ± 0.61 kg/m3
same,mass density,"300 K, 10000 kPa",567.19 ± 0.62 kg/m3
same,mass density,"300 K, 20000 kPa",581.58 ± 0.64 kg/m3
same,mass density,"300 K, 30000 kPa",593.56 ± 0.65 kg/m3
same,mass density,"300 K, 40000 kPa",603.71 ± 0.66 kg/m3
same,mass density,"300 K, 50000 kPa",612.8 ± 0.67 kg/m3
same,mass density,"300 K, 60000 kPa",620.94 ± 0.68 kg/m3
same,mass density,"300 K, 70000 kPa",628.12 ± 0.69 kg/m3
same,mass density,"300 K, 80000 kPa",634.84 ± 0.7 kg/m3
same,mass density,"300 K, 90000 kPa",641.05 ± 0.71 kg/m3
same,mass density,"300 K, 100000 kPa",646.84 ± 1 kg/m3
same,mass density,"300 K, 120000 kPa",657.68 ± 1.1 kg/m3
same,mass density,"300 K, 140000 kPa",667.21 ± 1.1 kg/m3
same,mass density,"300 K, 160000 kPa",676.01 ± 1.1 kg/m3
same,mass density,"300 K, 180000 kPa",684 ± 1.1 kg/m3
same,mass density,"300 K, 200000 kPa",691.43 ± 1.1 kg/m3
same,vapor or sublimation pressure,300 K,369.8 ± 0.8 kPa
same,mass density,"320 K, 1000 kPa",523.69 ± 0.58 kg/m3
same,mass density,"320 K, 2000 kPa",526.51 ± 0.58 kg/m3
same,mass density,"320 K, 3000 kPa",529.22 ± 0.58 kg/m3
same,mass density,"320 K, 5000 kPa",534.28 ± 0.59 kg/m3
same,mass density,"320 K, 10000 kPa",545.21 ± 0.6 kg/m3
same,mass density,"320 K, 20000 kPa",562.64 ± 0.62 kg/m3
same,mass density,"320 K, 30000 kPa",576.49 ± 0.63 kg/m3
same,mass density,"320 K, 40000 kPa",587.85 ± 0.65 kg/m3
same,mass density,"320 K, 50000 kPa",597.69 ± 0.66 kg/m3
same,mass density,"320 K, 60000 kPa",606.61 ± 0.67 kg/m3
same,mass density,"320 K, 70000 kPa",614.55 ± 0.68 kg/m3
same,mass density,"320 K, 80000 kPa",621.94 ± 0.68 kg/m3
same,mass density,"320 K, 90000 kPa",628.85 ± 0.69 kg/m3
same,mass density,"320 K, 100000 kPa",635.06 ± 1.1 kg/m3
same,mass density,"320 K, 120000 kPa",646.41 ± 1.1 kg/m3
same,mass density,"320 K, 140000 kPa",656.55 ± 1.1 kg/m3
same,mass density,"320 K, 160000 kPa",665.84 ± 1.1 kg/m3
same,mass density,"320 K, 180000 kPa",674.38 ± 1.2 kg/m3
same,mass density,"320 K, 200000 kPa",682.01 ± 1.2 kg/m3
same,mass density,"340 K, 2000 kPa",496.95 ± 0.55 kg/m3
same,mass density,"340 K, 3000 kPa",500.67 ± 0.55 kg/m3
same,mass density,"340 K, 5000 kPa",507.71 ± 0.56 kg/m3
same,mass density,"340 K, 10000 kPa",521.75 ± 0.57 kg/m3
same,mass density,"340 K, 20000 kPa",542.79 ± 0.6 kg/m3
same,mass density,"340 K, 30000 kPa",558.72 ± 0.61 kg/m3
same,mass density,"340 K, 40000 kPa",571.75 ± 0.63 kg/m3
same,mass density,"340 K, 50000 kPa",582.77 ± 0.64 kg/m3
same,mass density,"340 K, 60000 kPa",592.49 ± 0.65 kg/m3
same,mass density,"340 K, 70000 kPa",601.18 ± 0.66 kg/m3
same,mass density,"340 K, 80000 kPa",609.11 ± 0.67 kg/m3
same,mass density,"340 K, 90000 kPa",616.5 ± 0.68 kg/m3
same,mass density,"340 K, 100000 kPa",622.79 ± 1.1 kg/m3
same,mass density,"340 K, 120000 kPa",634.99 ± 1.1 kg/m3
same,mass density,"340 K, 140000 kPa",645.72 ± 1.2 kg/m3
same,mass density,"340 K, 160000 kPa",655.32 ± 1.2 kg/m3
same,mass density,"340 K, 180000 kPa",664.26 ± 1.2 kg/m3
same,mass density,"340 K, 200000 kPa",672.25 ± 1.2 kg/m3
same,mass density,"360 K, 2000 kPa",461.05 ± 0.51 kg/m3
same,mass density,"360 K, 3000 kPa",467.32 ± 0.51 kg/m3
same,mass density,"360 K, 5000 kPa",477.66 ± 0.53 kg/m3
same,mass density,"360 K, 10000 kPa",496.94 ± 0.55 kg/m3
same,mass density,"360 K, 20000 kPa",522.77 ± 0.58 kg/m3
same,mass density,"360 K, 30000 kPa",541.32 ± 0.6 kg/m3
same,mass density,"360 K, 40000 kPa",555.78 ± 0.61 kg/m3
same,mass density,"360 K, 50000 kPa",568.17 ± 0.62 kg/m3
same,mass density,"360 K, 60000 kPa",578.92 ± 0.64 kg/m3
same,mass density,"360 K, 70000 kPa",588.19 ± 0.65 kg/m3
same,mass density,"360 K, 80000 kPa",596.75 ± 0.66 kg/m3
same,mass density,"360 K, 90000 kPa",604.39 ± 0.66 kg/m3
same,mass density,"360 K, 100000 kPa",611.7 ± 1.2 kg/m3
same,mass density,"360 K, 120000 kPa",624.5 ± 1.2 kg/m3
same,mass density,"360 K, 140000 kPa",635.8 ± 1.2 kg/m3
same,mass density,"360 K, 160000 kPa",645.85 ± 1.2 kg/m3
same,mass density,"360 K, 180000 kPa",655.11 ± 1.2 kg/m3
same,mass density,"360 K, 200000 kPa",663.39 ± 1.3 kg/m3
same,mass density,"380 K, 3000 kPa",422.93 ± 0.47 kg/m3 and 422.97 ± 0.47 kg/m3
same,mass density,"380 K, 5000 kPa",441.32 ± 0.49 kg/m3 and 441.54 ± 0.49 kg/m3
same,mass density,"380 K, 10000 kPa",468.99 ± 0.52 kg/m3 and 469.14 ± 0.52 kg/m3
same,mass density,"380 K, 20000 kPa",501.27 ± 0.55 kg/m3 and 501.58 ± 0.55 kg/m3
same,mass density,"380 K, 30000 kPa",522.56 ± 0.57 kg/m3 and 522.99 ± 0.58 kg/m3
same,mass density,"380 K, 40000 kPa",539.38 ± 0.59 kg/m3
same,mass density,"380 K, 50000 kPa",552.44 ± 0.61 kg/m3 and 552.92 ± 0.61 kg/m3
same,mass density,"380 K, 60000 kPa",564.45 ± 0.62 kg/m3
same,mass density,"380 K, 70000 kPa",574.7 ± 0.63 kg/m3
same,mass density,"380 K, 80000 kPa",583.67 ± 0.64 kg/m3
same,mass density,"380 K, 90000 kPa",592.06 ± 0.65 kg/m3
same,mass density,"380 K, 100000 kPa",599.29 ± 1.2 kg/m3 and 599.44 ± 1.2 kg/m3
same,mass density,"380 K, 120000 kPa",612.95 ± 1.2 kg/m3
same,mass density,"380 K, 140000 kPa",624.62 ± 1.3 kg/m3
same,mass density,"380 K, 160000 kPa",635.26 ± 1.3 kg/m3
same,mass density,"380 K, 180000 kPa",644.86 ± 1.3 kg/m3
same,mass density,"380 K, 200000 kPa",653.7 ± 1.3 kg/m3 and 653.25 ± 1.3 kg/m3
same,mass density,"400 K, 4000 kPa",374.9 ± 0.41 kg/m3
same,mass density,"400 K, 5000 kPa",394.02 ± 0.43 kg/m3
same,mass density,"400 K, 10000 kPa",438.72 ± 0.48 kg/m3
same,mass density,"400 K, 20000 kPa",479.65 ± 0.53 kg/m3
same,mass density,"400 K, 30000 kPa",504.24 ± 0.55 kg/m3
same,mass density,"400 K, 40000 kPa",522.85 ± 0.58 kg/m3
same,mass density,"400 K, 50000 kPa",537.71 ± 0.59 kg/m3
same,mass density,"400 K, 60000 kPa",550.04 ± 0.61 kg/m3
same,mass density,"400 K, 70000 kPa",561.13 ± 0.62 kg/m3
same,mass density,"400 K, 80000 kPa",570.85 ± 0.63 kg/m3
same,mass density,"400 K, 90000 kPa",579.4 ± 0.64 kg/m3
same,mass density,"400 K, 100000 kPa",587.43 ± 1.2 kg/m3
same,mass density,"400 K, 120000 kPa",601.69 ± 1.3 kg/m3
same,mass density,"400 K, 140000 kPa",614.21 ± 1.3 kg/m3
same,mass density,"400 K, 160000 kPa",625.04 ± 1.3 kg/m3
same,mass density,"400 K, 180000 kPa",635.05 ± 1.3 kg/m3
same,mass density,"400 K, 200000 kPa",644.07 ± 1.4 kg/m3
same,mass density,"420 K, 10000 kPa",404.86 ± 0.45 kg/m3
same,mass density,"420 K, 20000 kPa",457.86 ± 0.5 kg/m3
same,mass density,"420 K, 30000 kPa",486.44 ± 0.54 kg/m3
same,mass density,"420 K, 40000 kPa",507.08 ± 0.56 kg/m3
same,mass density,"420 K, 50000 kPa",523.34 ± 0.58 kg/m3
same,mass density,"420 K, 60000 kPa",537.02 ± 0.59 kg/m3
same,mass density,"420 K, 70000 kPa",548.69 ± 0.6 kg/m3
same,mass density,"420 K, 80000 kPa",559.13 ± 0.62 kg/m3
same,mass density,"420 K, 90000 kPa",568.43 ± 0.63 kg/m3
same,mass density,"420 K, 100000 kPa",576.8 ± 1.3 kg/m3
same,mass density,"420 K, 120000 kPa",591.55 ± 1.3 kg/m3
same,mass density,"420 K, 140000 kPa",604.56 ± 1.3 kg/m3
same,mass density,"420 K, 160000 kPa",616.21 ± 1.4 kg/m3
same,mass density,"420 K, 180000 kPa",626.52 ± 1.4 kg/m3
same,mass density,"420 K, 200000 kPa",635.99 ± 1.4 kg/m3
same,mass density,"440 K, 10000 kPa",366.35 ± 0.4 kg/m3
same,mass density,"440 K, 20000 kPa",435.91 ± 0.48 kg/m3
same,mass density,"440 K, 30000 kPa",469.37 ± 0.52 kg/m3
same,mass density,"440 K, 40000 kPa",492.27 ± 0.54 kg/m3
same,mass density,"440 K, 50000 kPa",510.21 ± 0.56 kg/m3
same,mass density,"440 K, 60000 kPa",524.88 ± 0.58 kg/m3
same,mass density,"440 K, 70000 kPa",537.25 ± 0.59 kg/m3
same,mass density,"440 K, 80000 kPa",548.44 ± 0.6 kg/m3
same,mass density,"440 K, 90000 kPa",558.09 ± 0.61 kg/m3
same,mass density,"440 K, 100000 kPa",567 ± 1.3 kg/m3
same,mass density,"440 K, 120000 kPa",582.66 ± 1.4 kg/m3
same,mass density,"440 K, 140000 kPa",595.99 ± 1.4 kg/m3
same,mass density,"440 K, 160000 kPa",608.09 ± 1.4 kg/m3
same,mass density,"440 K, 180000 kPa",618.72 ± 1.4 kg/m3
same,mass density,"440 K, 200000 kPa",628.4 ± 1.5 kg/m3
